Assays:
[1] = system: dural blood vessel dilation; conditions: dilation from electrical stimulation, calcitonin gene-related peptide, nitrous oxide and capsaicin; reversed by a cannabinoid antagonist; cited from earlier work
[2] = system: patients with acute migraine attack; assay: Clinical trial of THC vs ibuprofen in acute migraine attack (Example 2); assay type: in vivo, human; conditions: primary endpoint; assumption for sample size
Description: To assess the effect of Tetrahydrocannabinol (THC) or a derivative thereof vs. NSAIDs (such as ibuprofen) in relieving acute migraine attack.
This example provides a prospective randomized double-blind, placebo-controlled trial.
The study population includes patients presenting with chief complaint an acute migraine attack to the emergency department (ED) at Soroka University Medical Center.
The study population is randomized into “double dummy” design (ratio 1:1): • Group 1—received Tetrahydrocannabinol (THC) and placebo tab ibuprofen. • Group 2—received placebo Tetrahydrocannabinol (THC) drops and tab ibuprofen.
The THC study doses include dose rages of between about 5 mg and up to 50 mg THC, preferably dose ranges of between about 10 mg THC and about 30 mg THC.
According to one embodiment, an ethanol extracted cannabis oil dissolved in a vegetable oil (with a distinct taste to differentiate it from the placebo oil) is used in this study. The aforementioned cannabis composition comprises THC dose range of about 20 mg to about 40 mg.
Headache and nausea severity is assessed using a 4-point pain severity scale (score 0-3) as detailed above. […] Additionally, THC blood levels are measured at about 30, 60 minutes and 2 hours. […]

Structure (SMILES) | dural blood vessel dilation [1] | expected treatment failure rate [2]
CCCCC/C=C\C/C=C\C/C=C\C/C=C\CCCC(=O)NCCO [AEA, N-arachidonoylethanolamine] | inhibit | –
CCCCCc1cc(O)c2c(c1)OC(C)(C)[C@@H]1CCC(C)=C[C@@H]21 [THC, Δ9-Tetrahydrocannabinol] | – | 40%
